How the values were obtained:
Assay type in all cases: in vivo
[1] = system: barnyardgrass (Echinochloa crus-galli); test: Test A preemergence, barnyardgrass; conditions: 0 to 100 scale; for Barnyardgrass plant response rating: 0 is no effect, 100 is complete control
How it was run: (§1)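 0–100 visual control rating, ~10 d post-treatment, greenhouse. Pre = directed soil spray on seeded loam/sand; post = spray at 1–2 leaf stage. Surfactant-containing solvent formulation.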

kochia (Kochia scoparia) [2] = test: Test A preemergence, kochia; conditions: 0 to 100 scale; for Kochia plant response rating: 0 is no effect, 100 is complete control
How it was run: as §1

[3] = system: ragweed (common ragweed, Ambrosia elatior); test: Test A preemergence, ragweed; conditions: 0 to 100 scale; for Ragweed plant response rating: 0 is no effect, 100 is complete control
How it was run: as §1

[4] = system: ryegrass, Italian (Lolium multiflorum); test: Test A preemergence, Italian ryegrass; conditions: 0 to 100 scale; for Ryegrass, Italian plant response rating: 0 is no effect, 100 is complete control
How it was run: as §1

[5] = system: foxtail, giant (Setaria faberii); test: Test A preemergence, giant foxtail; conditions: 0 to 100 scale; for Foxtail, Giant plant response rating: 0 is no effect, 100 is complete control
How it was run: as §1

[6] = system: pigweed (Amaranthus retroflexus); test: Test A preemergence, pigweed; conditions: 0 to 100 scale; for Pigweed plant response rating: 0 is no effect, 100 is complete control
How it was run: as §1

[7] = system: barnyardgrass (Echinochloa crus-galli); test: Test A postemergence, barnyardgrass; conditions: 0 to 100 scale, 0 no effect, 100 complete control
How it was run: as §1

kochia (Kochia scoparia) [8] = test: Test A postemergence, kochia; conditions: 0 to 100 scale; for Plant response rating, Kochia: 0 no effect, 100 complete control
How it was run: as §1

[9] = system: ragweed (common ragweed, Ambrosia elatior); test: Test A postemergence, ragweed; conditions: 0 to 100 scale; for Plant response rating, Ragweed: 0 no effect, 100 complete control
How it was run: as §1

[10] = system: ryegrass, Italian (Lolium multiflorum); test: Test A postemergence, Italian ryegrass; conditions: 0 to 100 scale; for Plant response rating, Ryegrass, Italian: 0 no effect, 100 complete control
How it was run: as §1

[11] = system: foxtail, giant (Setaria faberii); test: Test A postemergence, giant foxtail; conditions: 0 to 100 scale; for Plant response rating, Foxtail, Giant: 0 no effect, 100 complete control
How it was run: as §1

[12] = system: pigweed (Amaranthus retroflexus); test: Test A postemergence, pigweed; conditions: 0 to 100 scale; for Plant response rating, Pigweed: 0 no effect, 100 complete control
How it was run: as §1

[13] = system: wheat (Triticum aestivum); test: Test A postemergence, wheat; conditions: 0 to 100 scale; for Plant response rating, Wheat: 0 no effect, 100 complete control
How it was run: as §1

corn (Zea mays) = test: Test A postemergence, corn; conditions: 0 to 100 scale; for Plant response rating, Corn: 0 no effect, 100 complete control
How it was run: as §1

[14] = system: blackgrass (Alopecurus myosuroides); test: Test A postemergence, blackgrass; conditions: 0 to 100 scale; for Plant response rating, Blackgrass: 0 no effect, 100 complete control
How it was run: as §1

[15] = system: galium (catchweed bedstraw, Galium aparine); test: Test A postemergence, galium; conditions: 0 to 100 scale; for Plant response rating, Galium: 0 no effect, 100 complete control
How it was run: as §1

rice (Oryza sativa) = test: Test B flooded paddy test, rice; conditions: Flood, 250 g ai/ha, applied to paddy water, 2-leaf stage, visual evaluation after 13 to 15 d
How it was run: (§2)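 Plants grown to 2-leaf stage. Compounds applied directly into paddy water flooded 3 cm above soil, with that depth kept throughout. After 13–15 d in greenhouse, visual rating versus controls on a 0–100 scale (0 no effect, 100 complete control).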

[16] = system: sedge, umbrella (small-flower umbrella sedge, Cyperus difformis); test: Test B flooded paddy test, umbrella sedge; conditions: Flood, 250 g ai/ha, applied to paddy water, 2-leaf stage, visual evaluation after 13 to 15 d
How it was run: as §2

[17] = system: ducksalad (Heteranthera limosa); test: Test B flooded paddy test, ducksalad; conditions: Flood, 250 g ai/ha, applied to paddy water, 2-leaf stage, visual evaluation after 13 to 15 d
How it was run: as §2

[18] = system: barnyardgrass (Echinochloa crus-galli); test: Test B flooded paddy test, barnyardgrass; conditions: Flood, 250 g ai/ha, applied to paddy water, 2-leaf stage, visual evaluation after 13 to 15 d
How it was run: as §2

## C[C@@H](Nc1ncc(C(F)(F)F)c(N)n1)c1cc2c(Cl)cccc2s1 [Compound 116]
[1]; 31 g ai/ha
  Barnyardgrass plant response rating: 0
[1]; 125 g ai/ha
  Barnyardgrass plant response rating: 30
Kochia (Kochia scoparia) [2]; 31 g ai/ha
  Kochia plant response rating: 30
Kochia (Kochia scoparia) [2]; 125 g ai/ha
  Kochia plant response rating: 40
[3]; 31 g ai/ha
  Ragweed plant response rating: 60
[3]; 125 g ai/ha
  Ragweed plant response rating: 70
[4]; 31 g ai/ha
  Ryegrass, Italian plant response rating: 20
[4]; 125 g ai/ha
  Ryegrass, Italian plant response rating: 40
[5]; 31 g ai/ha
  Foxtail, Giant plant response rating: 20
[5]; 125 g ai/ha
  Foxtail, Giant plant response rating: 60
[6]; 31 g ai/ha
  Pigweed plant response rating: 40
[6]; 125 g ai/ha
  Pigweed plant response rating: 80
[7]; 31 g ai/ha
  Plant response rating, Barnyardgrass: 10
[7]; 125 g ai/ha
  Plant response rating, Barnyardgrass: 50
Kochia (Kochia scoparia) [8]; 31 g ai/ha
  Plant response rating, Kochia: 30
Kochia (Kochia scoparia) [8]; 125 g ai/ha
  Plant response rating, Kochia: 80
[9]; 31 g ai/ha
  Plant response rating, Ragweed: 40
[9]; 125 g ai/ha
  Plant response rating, Ragweed: 60
[10]; 31 g ai/ha
  Plant response rating, Ryegrass, Italian: 30
[10]; 125 g ai/ha
  Plant response rating, Ryegrass, Italian: 30
[11]; 31 g ai/ha
  Plant response rating, Foxtail, Giant: 10
[11]; 125 g ai/ha
  Plant response rating, Foxtail, Giant: 90
[12]; 31 g ai/ha
  Plant response rating, Pigweed: 90
[12]; 125 g ai/ha
  Plant response rating, Pigweed: 100
[13]; 31 g ai/ha
  Plant response rating, Wheat: 0
[13]; 125 g ai/ha
  Plant response rating, Wheat: 0
Corn (Zea mays); 31 g ai/ha
  Plant response rating, Corn: 20
Corn (Zea mays); 125 g ai/ha
  Plant response rating, Corn: 30
[14]; 31 g ai/ha
  Plant response rating, Blackgrass: 0
[14]; 125 g ai/ha
  Plant response rating, Blackgrass: 0
[15]; 31 g ai/ha
  Plant response rating, Galium: 60
[15]; 125 g ai/ha
  Plant response rating, Galium: 80
Rice (Oryza sativa)
  Plant response rating, Rice (0 to 100 scale, 0 is no effect, 100 is complete control): 0
[16]
  Plant response rating, Sedge, Umbrella (0 to 100 scale, 0 is no effect, 100 is complete control): 65
[17]
  Plant response rating, Ducksalad (0 to 100 scale, 0 is no effect, 100 is complete control): 60
[18]
  Plant response rating, Barnyardgrass (0 to 100 scale, 0 is no effect, 100 is complete control): 35

## CC(F)c1nc(N[C@H](C)c2cc3ccccc3o2)nc(N)c1C(F)(F)F (some centres unmarked) [Compound 112]
[1]; 31 g ai/ha
  Barnyardgrass plant response rating: 0
[1]; 125 g ai/ha
  Barnyardgrass plant response rating: 0
Kochia (Kochia scoparia) [2]; 31 g ai/ha
  Kochia plant response rating: 0
Kochia (Kochia scoparia) [2]; 125 g ai/ha
  Kochia plant response rating: 70
[3]; 31 g ai/ha
  Ragweed plant response rating: 0
[3]; 125 g ai/ha
  Ragweed plant response rating: 30
[4]; 31 g ai/ha
  Ryegrass, Italian plant response rating: 0
[4]; 125 g ai/ha
  Ryegrass, Italian plant response rating: 0
[5]; 31 g ai/ha
  Foxtail, Giant plant response rating: 0
[5]; 125 g ai/ha
  Foxtail, Giant plant response rating: 0
[6]; 31 g ai/ha
  Pigweed plant response rating: 0
[6]; 125 g ai/ha
  Pigweed plant response rating: 80
[7]; 31 g ai/ha
  Plant response rating, Barnyardgrass: 0
[7]; 125 g ai/ha
  Plant response rating, Barnyardgrass: 0
Kochia (Kochia scoparia) [8]; 31 g ai/ha
  Plant response rating, Kochia: 10
Kochia (Kochia scoparia) [8]; 125 g ai/ha
  Plant response rating, Kochia: 60
[9]; 31 g ai/ha
  Plant response rating, Ragweed: 0
[9]; 125 g ai/ha
  Plant response rating, Ragweed: 0
[10]; 31 g ai/ha
  Plant response rating, Ryegrass, Italian: 0
[10]; 125 g ai/ha
  Plant response rating, Ryegrass, Italian: 0
[11]; 31 g ai/ha
  Plant response rating, Foxtail, Giant: 0
[11]; 125 g ai/ha
  Plant response rating, Foxtail, Giant: 0
[12]; 31 g ai/ha
  Plant response rating, Pigweed: 30
[12]; 125 g ai/ha
  Plant response rating, Pigweed: 60
[13]; 31 g ai/ha
  Plant response rating, Wheat: 0
[13]; 125 g ai/ha
  Plant response rating, Wheat: 0
Corn (Zea mays); 31 g ai/ha
  Plant response rating, Corn: 30
Corn (Zea mays); 125 g ai/ha
  Plant response rating, Corn: 0
[14]; 31 g ai/ha
  Plant response rating, Blackgrass: 0
[14]; 125 g ai/ha
  Plant response rating, Blackgrass: 0
[15]; 31 g ai/ha
  Plant response rating, Galium: 20
[15]; 125 g ai/ha
  Plant response rating, Galium: 60
Rice (Oryza sativa)
  Plant response rating, Rice (0 to 100 scale, 0 is no effect, 100 is complete control): 0
[16]
  Plant response rating, Sedge, Umbrella (0 to 100 scale, 0 is no effect, 100 is complete control): 0
[17]
  Plant response rating, Ducksalad (0 to 100 scale, 0 is no effect, 100 is complete control): 0
[18]
  Plant response rating, Barnyardgrass (0 to 100 scale, 0 is no effect, 100 is complete control): 0

## C[C@@H](Nc1ncc(C(F)(F)F)c(N)n1)c1cc2ccccc2o1 [Compound 22, N2-[(1R)-1-(2-benzofuranyl)ethyl]-5-(trifluoromethyl)-2,4-pyrimidinediamine]
[1]; 1000 g ai/ha
  Plant response rating, Barnyardgrass: 100
Kochia (Kochia scoparia) [2]; 1000 g ai/ha
  Plant response rating, Kochia: 100
[3]; 1000 g ai/ha
  Plant response rating, Ragweed: 100
[4]; 1000 g ai/ha
  Plant response rating, Ryegrass, Italian: 100
[5]; 1000 g ai/ha
  Plant response rating, Foxtail, Giant: 100
[6]; 1000 g ai/ha
  Plant response rating, Pigweed: 100
[7]; Echinochloa crus-galli, post-emergence, 240 h, 1000 g ai/ha, read-out: Plant response rating, Barnyardgrass
  pest or weed control at 1000 g/ha: 100%
Kochia (Kochia scoparia) [8]; Bassia scoparia, post-emergence, 240 h, 1000 g ai/ha, read-out: Plant response rating, Kochia
  pest or weed control at 1000 g/ha: 80%
[9]; Ambrosia artemisiifolia, post-emergence, 240 h, 1000 g ai/ha, read-out: Plant response rating, Ragweed
  pest or weed control at 1000 g/ha: 80%
[10]; Lolium multiflorum, post-emergence, 240 h, 1000 g ai/ha, read-out: Plant response rating, Ryegrass, Italian
  pest or weed control at 1000 g/ha: 100%
[11]; Setaria faberi, post-emergence, 240 h, 1000 g ai/ha, read-out: Plant response rating, Foxtail, Giant
  pest or weed control at 1000 g/ha: 90%
[12]; Amaranthus retroflexus, post-emergence, 240 h, 1000 g ai/ha, read-out: Plant response rating, Pigweed
  pest or weed control at 1000 g/ha: 100%
[13]; Triticum aestivum, post-emergence, 240 h, 1000 g ai/ha, read-out: Plant response rating, Wheat
  plant injury at 1000 g/ha: 40%
Corn (Zea mays); Zea mays, post-emergence, 240 h, 1000 g ai/ha
  Corn plant response rating (crop injury, 0 = no effect, 100 = complete kill) at 1000 g/ha: 100%
[14]; Alopecurus myosuroides, post-emergence, 240 h, 1000 g ai/ha, read-out: Plant response rating, Blackgrass
  pest or weed control at 1000 g/ha: 90%
[15]; Galium, post-emergence, 240 h, 1000 g ai/ha, read-out: Plant response rating, Galium
  pest or weed control at 1000 g/ha: 90%
Rice (Oryza sativa); Oryza sativa, 360 h, read-out: Plant response rating, Rice (0 to 100 scale, 0 is no effect, 100 is complete control)
  plant injury at 250 g/ha: 0%
[16]; Cyperus difformis, 360 h, read-out: Plant response rating, Sedge, Umbrella (0 to 100 scale, 0 is no effect, 100 is complete control)
  pest or weed control at 250 g/ha: 95%
[17]; Heteranthera limosa, 360 h, read-out: Plant response rating, Ducksalad (0 to 100 scale, 0 is no effect, 100 is complete control)
  pest or weed control at 250 g/ha: 100%
[18]; Echinochloa crus-galli, 360 h, read-out: Plant response rating, Barnyardgrass (0 to 100 scale, 0 is no effect, 100 is complete control)
  pest or weed control at 250 g/ha: 40%

Reference: patent publication US20220119354A1, “DIAMINO-SUBSTITUTED PYRIDINES AND PYRIMIDINES AS HERBICIDES” (FMC Corporation, priority 2019, published 2022)
